# Measurements from patent US11304419B2, “Methods to induce heat stress tolerance in plants” (Valent BioSciences LLC, priority 2020, dated 2022).
# Assays:
# Assay type in all cases: in vivo
# Apogee wheat [1] = assay: Heat stress tolerance in wheat following ACC application at Feekes stage 5 (Example 2); settings: heat stress 34/28° C. 4 days
# Protocol: Apogee wheat was seeded into ProMix BX (Premier Horticulture) and grown in a growth cabinet under the following conditions: 24/18° C. day/night temperature under a 16/8 hour light/dark photoperiod. Plants were evaluated at Feekes stage 5 following the first set of growth conditions on Nov. 15, 2019. Next, spray applications of 0, 0 or 100 ppm ACC (n=8) were made using a track sprayer. Next, 2 days following treatment, one set of control plants (“treatment control”) and the 100 ppm ACC plants were transferred to a second growth cabinet at 34/28° C. day/night temperature under a 16/8-hour light/dark photoperiod for 4 days. These conditions constitute significant heat stress. The other set of control plants (“stress control”) remained in the first growth cabinet. Finally, the plants were then returned to the first growth cabinet for about 14 days where plants reached Feekes stage 10.1 (head emergence). Plants were then destructively harvested and measured for total spike number, fresh weight, total reproductive tiller number, percent reproductive tillers, A canopy density and total dry weight. Percent reproductive tillers is calculated by dividing the number of reproductive tillers by the total number of spikes at harvest. A canopy density is calculated by subtracting the canopy density at treatment from the canopy density at harvest.
# Apogee wheat [2] = assay: Heat stress tolerance in wheat following ACC application at Feekes stage 5 (Example 3); settings: heat stress 34/28° C. 4 days; for % Reproductive Tillers / Fresh Weight / Total Dry Weight / Total Spike Number / Total Tiller Number / Δ Canopy Density: n = 8; for % Reproductive Tillers, percent increase over stress control / Fresh Weight, percent increase over stress control / Total Dry Weight, percent increase over stress control / Total Spike Number, percent increase over stress control / Total Tiller Number, percent increase over stress control / Δ Canopy Density, percent increase over stress control: vs stress control (no heat); for % Reproductive Tillers, percent increase over treatment control / Fresh Weight, percent increase over treatment control / Total Dry Weight, percent increase over treatment control / Total Spike Number, percent increase over treatment control / Total Tiller Number, percent increase over treatment control / Δ Canopy Density, percent increase over treatment control: vs treatment control (heat, no ACC)
# Protocol: Apogee wheat was seeded into ProMix BX (Premier Horticulture) and grown in a growth cabinet under the following conditions: 24/18° C. day/night temperature under a 16/8 hour light/dark photoperiod. Plants were at Feekes stage 5 following the first set of growth conditions. Next, spray applications of 0, 0, 100 or 300 ppm ACC (n=8) were made using a track sprayer on Oct. 4, 2019. […] These conditions constitute significant heat stress. The other set of control plants (“stress control”) remained in the first growth cabinet. Finally, the plants were then returned to the first growth cabinet for about 14 days where plants reached Feekes stage 10.1 (head emergence). Plants were then destructively harvested and measured for total spike number, fresh weight, total reproductive tiller number, percent reproductive tillers, A canopy density and total dry weight. Percent reproductive tillers is calculated by dividing the number of reproductive tillers by the total number of spikes at harvest. A canopy density is calculated by subtracting the canopy density at treatment from the canopy density at harvest.
# Butterhead lettuce = assay: Heat stress tolerance in lettuce following ACC application at rosette stage; settings: heat stress 34/30° C. nine days; for Canopy Density / Fresh Weight / Δ Canopy Density: n = 5; for Canopy Density, percent increase over stress control / Fresh Weight, percent increase over stress control / Δ Canopy Density, percent increase over stress control: vs stress control; for Canopy Density, percent increase over treatment control / Fresh Weight, percent increase over treatment control / Δ Canopy Density, percent increase over treatment control: vs treatment control
# Protocol: Butterhead lettuce was seeded into ProMix BX (Premier Horticulture) and grown in a greenhouse. Three weeks post-sowing the lettuce was transferred to a growth cabinet under the following conditions: 24/18° C. day/night temperature under a 16/8 hour light/dark photoperiod. Plants were at head formation (rosette) stage following the first set of growth conditions. 4 days after transfer canopy density was calculated. Next, spray applications of 0, 10, 30 or 100 ppm ACC (n=5) were made using a track sprayer on Sep. 21, 2020. Next, two days following treatment, half of the plants were transferred to a second growth cabinet at 34/30° C. day/night temperature under a 16/8-hour light/dark photoperiod for nine days. These conditions constitute significant heat stress. Plants were then destructively harvested and measured for fresh weight, size, canopy density and A canopy density. A canopy density is calculated by subtracting the canopy density at treatment from the canopy density at harvest.
# [3] = 100 ppm ACC spray at Feekes stage 5, n = 8
# [4] = 100 ppm ACC, vs stress control (no heat)
# [5] = 100 ppm ACC, vs treatment control (heat, no ACC)
# [6] = 100 ppm ACC spray at Feekes stage 5
# [7] = 300 ppm ACC spray at Feekes stage 5
# [8] = 10 ppm ACC spray at rosette stage
# [9] = 30 ppm ACC spray at rosette stage
# [10] = 100 ppm ACC spray at rosette stage
smiles,measurement,setting,value
"NC1(C(=O)O)CC1 [ACC, 1-amino-1-cyclopropanecarboxylic acid]",% Reproductive Tillers,Apogee wheat [1]; [3],89.60%
same,Fresh Weight,Apogee wheat [1]; [3],9.18 grams
same,Total Dry Weight,Apogee wheat [1]; [3],2.12 grams
same,Total Spike Number,Apogee wheat [1]; [3],3.13
same,Total Tiller Number,Apogee wheat [1]; [3],2.75
same,Δ Canopy Density,Apogee wheat [1]; [3],1.52
same,"Fresh Weight, percent increase over stress control",Apogee wheat [1]; [4],(−18.8%)
same,"Total Dry Weight, percent increase over stress control",Apogee wheat [1]; [4],(−16.9%)
same,"Total Spike Number, percent increase over stress control",Apogee wheat [1]; [4],(−7.1%)
same,"Total Tiller Number, percent increase over stress control",Apogee wheat [1]; [4],(−12.1%)
same,"% Reproductive Tillers, percent increase over treatment control",Apogee wheat [1]; [5],[43.4%]
same,"Fresh Weight, percent increase over treatment control",Apogee wheat [1]; [5],[19.2%]
same,"Total Dry Weight, percent increase over treatment control",Apogee wheat [1]; [5],[7.6%]
same,"Total Spike Number, percent increase over treatment control",Apogee wheat [1]; [5],[−3.7%]
same,"Total Tiller Number, percent increase over treatment control",Apogee wheat [1]; [5],[37.5%]
same,"Δ Canopy Density, percent increase over treatment control",Apogee wheat [1]; [5],[42.1%]
same,% Reproductive Tillers,Apogee wheat [2]; [6],63.80%
same,Fresh Weight,Apogee wheat [2]; [6],17.95 grams
same,Total Dry Weight,Apogee wheat [2]; [6],4.31 grams
same,Total Spike Number,Apogee wheat [2]; [6],7
same,Total Tiller Number,Apogee wheat [2]; [6],4.38
same,Δ Canopy Density,Apogee wheat [2]; [6],2.65%
same,"% Reproductive Tillers, percent increase over stress control",Apogee wheat [2]; 100 ppm ACC,(−11.5%)
same,"Fresh Weight, percent increase over stress control",Apogee wheat [2]; 100 ppm ACC,(4.6%)
same,"Total Dry Weight, percent increase over stress control",Apogee wheat [2]; 100 ppm ACC,(−5.5%)
same,"Total Spike Number, percent increase over stress control",Apogee wheat [2]; 100 ppm ACC,(24.3%)
same,"Total Tiller Number, percent increase over stress control",Apogee wheat [2]; 100 ppm ACC,(9.5%)
same,"Δ Canopy Density, percent increase over stress control",Apogee wheat [2]; 100 ppm ACC,(3.5%)
same,"% Reproductive Tillers, percent increase over treatment control",Apogee wheat [2]; 100 ppm ACC,[−0.8%]
same,"Fresh Weight, percent increase over treatment control",Apogee wheat [2]; 100 ppm ACC,[5.8%]
same,"Total Dry Weight, percent increase over treatment control",Apogee wheat [2]; 100 ppm ACC,[11.1%]
same,"Total Spike Number, percent increase over treatment control",Apogee wheat [2]; 100 ppm ACC,[12.0%]
same,"Total Tiller Number, percent increase over treatment control",Apogee wheat [2]; 100 ppm ACC,[12.9%]
same,"Δ Canopy Density, percent increase over treatment control",Apogee wheat [2]; 100 ppm ACC,[5.2%]
same,% Reproductive Tillers,Apogee wheat [2]; [7],63.10%
same,Fresh Weight,Apogee wheat [2]; [7],16.74 grams
same,Total Dry Weight,Apogee wheat [2]; [7],4.33 grams
same,Total Spike Number,Apogee wheat [2]; [7],6.38
same,Total Tiller Number,Apogee wheat [2]; [7],3.88
same,Δ Canopy Density,Apogee wheat [2]; [7],2.36%
same,"% Reproductive Tillers, percent increase over stress control",Apogee wheat [2]; 300 ppm ACC,(−12.5%)
same,"Fresh Weight, percent increase over stress control",Apogee wheat [2]; 300 ppm ACC,(−2.4%)
same,"Total Dry Weight, percent increase over stress control",Apogee wheat [2]; 300 ppm ACC,(−5.0%)
same,"Total Spike Number, percent increase over stress control",Apogee wheat [2]; 300 ppm ACC,(13.3%)
same,"Total Tiller Number, percent increase over stress control",Apogee wheat [2]; 300 ppm ACC,(−3.0%)
same,"Δ Canopy Density, percent increase over stress control",Apogee wheat [2]; 300 ppm ACC,(−7.8%)
same,"% Reproductive Tillers, percent increase over treatment control",Apogee wheat [2]; 300 ppm ACC,[−1.9%]
same,"Fresh Weight, percent increase over treatment control",Apogee wheat [2]; 300 ppm ACC,[−1.4%]
same,"Total Dry Weight, percent increase over treatment control",Apogee wheat [2]; 300 ppm ACC,[11.6%]
same,"Total Spike Number, percent increase over treatment control",Apogee wheat [2]; 300 ppm ACC,[2.1%]
same,"Total Tiller Number, percent increase over treatment control",Apogee wheat [2]; 300 ppm ACC,[0%]
same,"Δ Canopy Density, percent increase over treatment control",Apogee wheat [2]; 300 ppm ACC,[−6.3%]
same,Canopy Density,Butterhead lettuce; [8],15.58
same,Fresh Weight,Butterhead lettuce; [8],93.94 grams
same,Δ Canopy Density,Butterhead lettuce; [8],5.12
same,"Canopy Density, percent increase over stress control",Butterhead lettuce; 10 ppm ACC,(−11.5%)
same,"Fresh Weight, percent increase over stress control",Butterhead lettuce; 10 ppm ACC,(−8.5%)
same,"Δ Canopy Density, percent increase over stress control",Butterhead lettuce; 10 ppm ACC,(−24.9%)
same,"Canopy Density, percent increase over treatment control",Butterhead lettuce; 10 ppm ACC,[5.9%]
same,"Fresh Weight, percent increase over treatment control",Butterhead lettuce; 10 ppm ACC,[11.6%]
same,"Δ Canopy Density, percent increase over treatment control",Butterhead lettuce; 10 ppm ACC,[46.3%]
same,Canopy Density,Butterhead lettuce; [9],16.65
same,Fresh Weight,Butterhead lettuce; [9],115.11 grams
same,Δ Canopy Density,Butterhead lettuce; [9],5.08
same,"Canopy Density, percent increase over stress control",Butterhead lettuce; 30 ppm ACC,(−5.4%)
same,"Fresh Weight, percent increase over stress control",Butterhead lettuce; 30 ppm ACC,(12.1%)
same,"Δ Canopy Density, percent increase over stress control",Butterhead lettuce; 30 ppm ACC,(−25.5%)
same,"Canopy Density, percent increase over treatment control",Butterhead lettuce; 30 ppm ACC,[13.2%]
same,"Fresh Weight, percent increase over treatment control",Butterhead lettuce; 30 ppm ACC,[36.8%]
same,"Δ Canopy Density, percent increase over treatment control",Butterhead lettuce; 30 ppm ACC,[45.1%]
same,Canopy Density,Butterhead lettuce; [10],15.80
same,Fresh Weight,Butterhead lettuce; [10],97.51 grams
same,Δ Canopy Density,Butterhead lettuce; [10],4.11
same,"Canopy Density, percent increase over stress control",Butterhead lettuce; 100 ppm ACC,(−10.2%)
same,"Fresh Weight, percent increase over stress control",Butterhead lettuce; 100 ppm ACC,(−5.1%)
same,"Δ Canopy Density, percent increase over stress control",Butterhead lettuce; 100 ppm ACC,(−39.7%)
same,"Canopy Density, percent increase over treatment control",Butterhead lettuce; 100 ppm ACC,[7.4%]
same,"Fresh Weight, percent increase over treatment control",Butterhead lettuce; 100 ppm ACC,[15.9%]
same,"Δ Canopy Density, percent increase over treatment control",Butterhead lettuce; 100 ppm ACC,[17.4%]
